From ChEMBL document CHEMBL1201862, “PubChem BioAssay data set” (2004)
Activity calls are given as the source filed them.

Experiments:
Fatty acid synthase [1] = molecular target: T1, Fatty acid synthase (Homo sapiens, UniProt P49327); test: inhibition of human FAS-TE enzyme activity – biochemical, endpoint fluorescence intensity, uHTS hits, dose response (AID 624327); assay type: functional;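 further: fluorescence from hydrolysis of an O-methyl fluorescein acyl ester substrate by the enzyme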
Fatty acid synthase [2] = molecular target: T1, Fatty acid synthase; test: inhibition of human FAS-TE enzyme activity – biochemical, kinetic fluorescence intensity, dose response (AID 624326); assay type: functional;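 further: rate of fluorescence rise from hydrolysis of a fluorogenic O-methyl fluorescein ester substrate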
cells [3] = assay type: functional, cell-based
cells [4] = assay type: functional, cell-based; remark: listed apart in the source
[5] = Luminescence Cell-Based Dose Confirmation HTS to Identify Activators of 5'UTR Stem-Loop Driven Alpha-Synuclein mRNA Translation in H4 Neuroglioblastoma Cells. [Related pubchem assays: 1829 (Project Summary), 1814 (Primary HTS)]; assay type: functional
[6] = Luminescence Cell-Based Dose Response HTS to Identify Activators of Luciferase Translation or Activity in H4 […] Cells. [Related pubchem assays: 1829 (Project Summary), 1814 (Primary HTS)]; assay type: functional
H4 = test: Luminescence Cell-Based Dose Response HTS to Identify Activators of 5'UTR Stem-Loop Driven Prion Protein mRNA Translation in H4 Neuroglioblastoma Cells. [Related pubchem assays: 1829 (Project Summary), 1814 (Primary HTS)]; assay type: functional; conditions: Homo sapiens
[7] = molecular target: T2, Zinc finger protein mex-5 (Caenorhabditis elegans, UniProt Q9XUB2); test: potency of MEX-5 RNA-binding blockers – biochemical, C. elegans, fluorescence polarization, dose response (AID 1960)
T2 sequence (Q9XUB2 whole entry): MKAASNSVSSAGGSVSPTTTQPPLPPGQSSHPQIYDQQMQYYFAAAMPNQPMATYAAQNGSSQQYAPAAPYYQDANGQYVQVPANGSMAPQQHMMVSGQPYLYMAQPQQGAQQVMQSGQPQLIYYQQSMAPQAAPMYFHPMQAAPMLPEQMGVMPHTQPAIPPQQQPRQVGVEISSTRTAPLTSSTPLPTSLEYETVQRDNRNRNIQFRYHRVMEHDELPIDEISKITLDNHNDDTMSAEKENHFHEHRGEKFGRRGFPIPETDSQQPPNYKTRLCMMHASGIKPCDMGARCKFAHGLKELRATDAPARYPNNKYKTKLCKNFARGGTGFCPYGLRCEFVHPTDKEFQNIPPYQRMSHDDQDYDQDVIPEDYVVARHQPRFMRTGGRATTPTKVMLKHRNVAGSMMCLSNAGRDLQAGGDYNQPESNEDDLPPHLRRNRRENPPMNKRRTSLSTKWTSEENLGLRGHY

[8] = molecular target: T3, RNA-binding protein pos-1 (Caenorhabditis elegans, UniProt G5EF15); test: disruptors of C. elegans POS-1 RNA interaction – biochemical, fluorescence polarization, dose response (AID 1964);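 further: purified POS-1 fused to maltose binding protein made in E. coli; potency of compounds blocking POS-1 binding to fluorescent RNA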
T3 sequence (G5EF15 whole entry): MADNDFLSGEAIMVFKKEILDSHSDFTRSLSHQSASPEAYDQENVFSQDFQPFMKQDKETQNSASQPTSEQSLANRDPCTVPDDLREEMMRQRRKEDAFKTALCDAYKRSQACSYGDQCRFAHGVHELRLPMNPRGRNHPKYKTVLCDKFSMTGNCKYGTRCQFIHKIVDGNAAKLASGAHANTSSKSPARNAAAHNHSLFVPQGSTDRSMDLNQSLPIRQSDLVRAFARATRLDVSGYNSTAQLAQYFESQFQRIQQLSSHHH

[9] = molecular target: T4, High affinity choline transporter 1 (Homo sapiens, UniProt Q9GZV3); test: human choline transporter blockers, potency – cell-based, 5-point CRC, membrane potential dye, dose response (AID 504840); assay type: functional
T4 sequence (Q9GZV3 whole entry): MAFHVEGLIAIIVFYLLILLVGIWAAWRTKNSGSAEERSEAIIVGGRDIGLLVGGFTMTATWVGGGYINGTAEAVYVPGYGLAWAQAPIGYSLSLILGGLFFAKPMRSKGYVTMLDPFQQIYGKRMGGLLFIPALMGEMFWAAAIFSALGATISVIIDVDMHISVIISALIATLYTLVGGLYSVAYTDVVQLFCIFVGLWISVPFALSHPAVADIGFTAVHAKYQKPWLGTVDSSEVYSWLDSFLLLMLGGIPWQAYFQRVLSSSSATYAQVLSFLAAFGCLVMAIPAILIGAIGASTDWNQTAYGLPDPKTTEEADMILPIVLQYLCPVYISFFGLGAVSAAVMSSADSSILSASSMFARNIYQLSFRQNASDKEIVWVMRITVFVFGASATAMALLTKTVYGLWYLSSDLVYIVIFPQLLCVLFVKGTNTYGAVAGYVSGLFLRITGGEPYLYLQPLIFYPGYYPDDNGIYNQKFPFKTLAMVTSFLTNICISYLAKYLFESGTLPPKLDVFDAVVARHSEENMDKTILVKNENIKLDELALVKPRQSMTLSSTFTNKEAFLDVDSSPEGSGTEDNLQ

[10] = molecular target: T5, Heat shock factor protein 1 (Mus musculus, UniProt P38532); test: decrease of HSF1-responsive luciferase luminescence – cell-based, NIH3T3, dose retest, confirmation (AID 2382); assay type: functional;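 further: NIH3T3 fibroblasts with HSF1-driven luciferase reporter stressed by proteasome inhibitor MG132; luminescence from HSF1-driven luciferase expression after 8 hours of MG132 stress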
T5 sequence (P38532 whole entry): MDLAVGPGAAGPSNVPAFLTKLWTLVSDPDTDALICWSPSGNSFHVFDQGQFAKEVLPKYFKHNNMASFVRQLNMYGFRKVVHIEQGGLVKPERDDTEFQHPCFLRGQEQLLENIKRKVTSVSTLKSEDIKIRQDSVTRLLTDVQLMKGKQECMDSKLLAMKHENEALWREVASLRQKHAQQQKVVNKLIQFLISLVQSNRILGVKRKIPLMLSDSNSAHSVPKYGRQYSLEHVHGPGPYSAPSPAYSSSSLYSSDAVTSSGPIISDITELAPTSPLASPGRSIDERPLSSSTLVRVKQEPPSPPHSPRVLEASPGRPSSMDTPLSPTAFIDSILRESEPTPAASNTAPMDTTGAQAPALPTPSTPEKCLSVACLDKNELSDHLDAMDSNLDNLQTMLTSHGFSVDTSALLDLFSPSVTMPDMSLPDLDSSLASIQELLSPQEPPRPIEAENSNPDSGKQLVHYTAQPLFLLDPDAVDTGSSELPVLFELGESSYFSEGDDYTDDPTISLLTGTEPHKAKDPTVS

[11] = OVCAR8 cell viability loss – plate reader, dry powder samples, PAX8 project, dose response (AID 743197); assay type: functional, cell-based; conditions: OVCAR-8
Paired box protein Pax-8 = Paired box protein Pax-8 (Homo sapiens, UniProt Q06710); test: PAX8 transcriptional activity inhibition in RMG-I – RMG-I cells, luciferase, cherry-pick, dose response (AID 687027); assay type: functional, cell-based;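 further: luciferase reporter driven by Pax8 target thyroperoxidase promoter measured by SteadyGlo luminescence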
[12] = THP-1 cell cytotoxicity, dose response, cytotoxicity control for non-replicating M. tuberculosis project (AID 489025); assay type: functional
cells [13] = assay type: functional
H9c2 = test: cells; assay type: functional, cell-based; conditions: Rattus norvegicus, H9c2, Myocardium;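 further: confirmatory concentration-response retest of ultra-high-throughput screening hits for modulation of myocardial damage; cell death induced by hydrogen peroxide oxidative stress; compound pretreatment for 60 min then peroxide exposure for 2 h; potency is for protecting the cells against peroxide damage rather than for killing them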

T1 sequence (P49327 whole entry): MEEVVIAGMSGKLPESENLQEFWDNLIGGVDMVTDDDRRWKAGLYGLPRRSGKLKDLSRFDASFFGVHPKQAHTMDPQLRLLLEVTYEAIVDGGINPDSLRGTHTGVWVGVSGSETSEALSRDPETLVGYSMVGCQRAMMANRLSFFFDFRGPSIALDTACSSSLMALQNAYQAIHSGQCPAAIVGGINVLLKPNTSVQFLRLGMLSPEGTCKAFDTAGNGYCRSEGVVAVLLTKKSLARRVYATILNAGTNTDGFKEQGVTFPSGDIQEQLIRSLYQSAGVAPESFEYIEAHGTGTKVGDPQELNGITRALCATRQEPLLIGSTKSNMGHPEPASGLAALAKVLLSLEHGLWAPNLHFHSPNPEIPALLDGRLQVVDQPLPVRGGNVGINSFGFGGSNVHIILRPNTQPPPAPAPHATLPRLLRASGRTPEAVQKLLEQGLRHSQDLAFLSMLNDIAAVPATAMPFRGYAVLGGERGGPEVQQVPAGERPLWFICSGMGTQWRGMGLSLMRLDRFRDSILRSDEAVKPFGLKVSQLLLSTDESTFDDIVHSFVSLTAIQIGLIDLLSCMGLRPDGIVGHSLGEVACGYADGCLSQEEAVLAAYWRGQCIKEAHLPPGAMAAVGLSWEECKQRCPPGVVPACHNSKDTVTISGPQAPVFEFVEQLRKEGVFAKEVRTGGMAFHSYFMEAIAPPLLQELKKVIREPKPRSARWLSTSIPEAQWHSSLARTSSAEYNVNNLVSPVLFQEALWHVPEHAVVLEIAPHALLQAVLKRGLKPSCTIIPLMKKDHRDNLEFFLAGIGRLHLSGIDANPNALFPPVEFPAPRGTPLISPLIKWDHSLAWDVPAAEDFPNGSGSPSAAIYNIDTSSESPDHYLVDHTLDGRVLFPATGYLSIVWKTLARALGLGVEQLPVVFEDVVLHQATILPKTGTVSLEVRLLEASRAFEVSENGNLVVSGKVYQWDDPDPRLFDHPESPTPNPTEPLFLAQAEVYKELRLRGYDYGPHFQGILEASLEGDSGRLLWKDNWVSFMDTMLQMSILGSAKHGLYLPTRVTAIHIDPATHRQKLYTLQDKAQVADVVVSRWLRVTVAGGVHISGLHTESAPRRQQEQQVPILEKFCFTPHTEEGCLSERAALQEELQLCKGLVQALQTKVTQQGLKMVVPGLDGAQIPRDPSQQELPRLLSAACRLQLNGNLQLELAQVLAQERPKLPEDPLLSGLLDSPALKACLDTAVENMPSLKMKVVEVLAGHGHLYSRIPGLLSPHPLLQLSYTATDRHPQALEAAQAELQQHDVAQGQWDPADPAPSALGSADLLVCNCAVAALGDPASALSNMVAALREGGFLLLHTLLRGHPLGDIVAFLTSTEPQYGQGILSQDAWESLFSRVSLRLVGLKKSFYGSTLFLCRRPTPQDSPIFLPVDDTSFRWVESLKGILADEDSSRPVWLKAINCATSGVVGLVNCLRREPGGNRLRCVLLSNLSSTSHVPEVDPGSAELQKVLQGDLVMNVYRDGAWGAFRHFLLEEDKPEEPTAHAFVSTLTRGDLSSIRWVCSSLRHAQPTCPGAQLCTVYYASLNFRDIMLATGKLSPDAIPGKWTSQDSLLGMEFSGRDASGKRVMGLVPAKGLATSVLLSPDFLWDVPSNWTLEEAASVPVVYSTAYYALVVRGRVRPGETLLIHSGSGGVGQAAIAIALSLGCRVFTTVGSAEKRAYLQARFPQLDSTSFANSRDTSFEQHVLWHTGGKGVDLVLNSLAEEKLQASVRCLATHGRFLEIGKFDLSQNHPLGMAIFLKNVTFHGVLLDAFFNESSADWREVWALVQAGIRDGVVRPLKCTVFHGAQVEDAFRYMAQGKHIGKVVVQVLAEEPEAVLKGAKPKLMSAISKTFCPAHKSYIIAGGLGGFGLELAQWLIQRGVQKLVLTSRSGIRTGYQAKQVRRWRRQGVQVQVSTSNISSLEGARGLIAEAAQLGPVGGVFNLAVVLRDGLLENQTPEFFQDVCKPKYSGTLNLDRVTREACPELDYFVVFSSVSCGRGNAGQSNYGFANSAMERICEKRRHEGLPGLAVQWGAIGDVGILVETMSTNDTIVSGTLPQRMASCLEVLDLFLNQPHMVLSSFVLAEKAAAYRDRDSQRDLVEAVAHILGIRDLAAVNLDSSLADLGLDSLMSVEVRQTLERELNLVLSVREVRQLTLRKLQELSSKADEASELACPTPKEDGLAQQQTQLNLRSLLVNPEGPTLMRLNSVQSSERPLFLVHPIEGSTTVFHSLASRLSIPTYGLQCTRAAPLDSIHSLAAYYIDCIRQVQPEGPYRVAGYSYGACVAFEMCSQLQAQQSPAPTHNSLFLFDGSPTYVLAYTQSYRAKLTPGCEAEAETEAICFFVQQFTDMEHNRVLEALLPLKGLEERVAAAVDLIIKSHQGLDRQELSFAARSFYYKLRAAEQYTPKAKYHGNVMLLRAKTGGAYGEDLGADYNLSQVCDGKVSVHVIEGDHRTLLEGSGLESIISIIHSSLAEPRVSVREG
Sequence of Paired box protein Pax-8 (Q06710 whole entry): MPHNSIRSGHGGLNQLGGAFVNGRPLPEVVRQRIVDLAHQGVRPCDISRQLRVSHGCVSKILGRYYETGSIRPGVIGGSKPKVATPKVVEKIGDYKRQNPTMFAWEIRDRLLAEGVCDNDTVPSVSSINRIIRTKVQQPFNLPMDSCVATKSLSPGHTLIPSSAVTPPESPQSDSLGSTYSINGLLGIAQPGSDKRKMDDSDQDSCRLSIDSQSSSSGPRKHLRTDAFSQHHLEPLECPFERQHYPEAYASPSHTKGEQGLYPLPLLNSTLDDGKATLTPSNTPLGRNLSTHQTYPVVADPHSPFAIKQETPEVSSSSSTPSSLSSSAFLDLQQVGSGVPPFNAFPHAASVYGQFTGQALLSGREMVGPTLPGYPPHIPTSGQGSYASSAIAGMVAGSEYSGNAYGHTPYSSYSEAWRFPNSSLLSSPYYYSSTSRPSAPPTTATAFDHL

Cc1ccc(NC(=O)CCNC(=O)c2ccc([N+](=O)[O-])cc2)cc1C
IC50 (Fatty acid synthase [1]): 9.54 µM (active) | IC50 (Fatty acid synthase [2]): 9.29 µM (active)

OCCC#Cc1ccc(CN2CCN(Cc3ccccc3)C(CCO)C2)cc1 (stereo not given)
EC50 (cells [3]): > 350 µM (not active) | EC50 (cells [4]): > 350 µM (not active)

Clc1cccc(Cl)c1Cn1nnc(N2CCCC2)n1
EC50 [5]: 12 µM (active) | EC50 [6]: 13.8 µM (active) | EC50 (H4): 20.3 µM (active)

CC1CCN(Cc2nc(-c3ccccc3)no2)CC1
EC50 [5]: 0.272 µM (active) | EC50 [6]: < 0.1 µM (active) | EC50 (H4): 25.8 µM (active)

O=C1CSC(N/N=C/c2cccs2)=N1
EC50 [7]: > 300 µM (not active) | EC50 [8]: > 300 µM (not active)

CCN(CC)CCCn1c2c(c(SCC(=O)N3CCc4ccccc43)nc1=O)CCC2
IC50 [9]: 10.9 µM (active)

CCS(=O)(=O)C1=NN2C(=N)/C(=C\c3ccc(OS(=O)(=O)c4ccccc4)cc3)C(=O)N=C2S1
IC50 [9]: 6.95 µM (active)

Cn1ncc(Cl)c1C(=O)N/N=C/c1cccc(OC2CSC2)c1
EC50 [7]: > 300 µM (not active) | EC50 [8]: > 300 µM (not active)

N#Cc1c(/N=C/c2cc(Br)cs2)sc2c1CCC2
EC50 [5]: > 120 µM (not active) | EC50 [6]: 33.6 µM (active) | EC50 (H4): 11.2 µM (active)

COc1ccc(NC(=O)CCS(=O)(=O)c2ccc3c(c2)CCN3C(C)=O)cc1
EC50 (cells [3]): > 350 µM (not active) | EC50 (cells [4]): > 350 µM (not active)

O=C(CSc1ccc([N+](=O)[O-])cc1)NCC1CCCCC1
IC50 (Fatty acid synthase [1]): 8.2 µM (active) | IC50 (Fatty acid synthase [2]): 11.9 µM (active)

CC(/C=C1\SC(=S)N(NC(=O)c2ccncc2)C1=O)=C\c1ccccc1
IC50 [9]: 14.5 µM (active)

O=C(Nc1ccc(NC(=O)C2CC2)nc1)c1cccc(F)c1
EC50 [5]: 13.1 µM (active) | EC50 [6]: 11.2 µM (active) | EC50 (H4): > 120 µM (not active)

CCCn1c(O)c(C#N)c(C)c(CN2CCCCC2)c1=O
EC50 [7]: > 300 µM (not active) | EC50 [8]: > 300 µM (inconclusive)

N#CC1=C(N)OC2=C(C(=O)CCC2)C1c1cc2c(cc1Cl)OCO2 (stereo not given)
EC50 [7]: > 300 µM (not active) | EC50 [8]: > 300 µM (not active)

O=[N+]([O-])c1cc(-c2ccc(/C=N/n3cnnc3)o2)ccc1Cl
EC50 [7]: 32.5 µM (active) | EC50 [8]: 30.1 µM (active)

O=C(O)/C=C\C(=O)Nc1ccccc1C#Cc1ccc(Br)cc1
EC50 [5]: 114 µM (active) | EC50 [6]: 19.7 µM (active) | EC50 (H4): 7.95 µM (active)

CCC1Oc2ccccc2N(CC(=O)Nc2ccccc2OC)C1=O (stereo not given)
EC50 (cells [3]): > 350 µM (not active) | EC50 (cells [4]): > 350 µM (not active)

CC1(C)Cc2c(C#N)c(SCCC#N)nc(N3CCOCC3)c2CO1
EC50 (cells [3]): > 350 µM (not active) | EC50 (cells [4]): > 350 µM (not active) | EC50 [10]: > 195 µM (not active)

CN1c2ccc(C3=CCCCC3)cc2[C@H]2[C@H](CCN2C(=O)NC2CCCCC2)[C@@H]1CO
AC50 [11]: > 70 µM (inactive) | AC50 (Paired box protein Pax-8): 12.3 µM (active)

COc1ccc(-c2cc3c(=O)n(CC(=O)NCc4ccc(F)cc4)ncn3n2)cc1
EC50 [5]: 1.33 µM (active) | EC50 [6]: 0.124 µM (active)

O=C(Cn1cc([N+](=O)[O-])ccc1=O)NCC1COc2ccccc2O1 (stereo not given)
IC50 (Fatty acid synthase [1]): 10.1 µM (active) | IC50 (Fatty acid synthase [2]): 11.5 µM (active)

NC1=C(c2nc3ccccc3s2)C(=O)CN1Cc1ccccc1
EC50 [5]: > 120 µM (not active) | EC50 [6]: 92 µM (active) | EC50 (H4): > 120 µM (not active)

C[C@@H]1CN([C@@H](C)CO)C(=O)c2c(c3ccccc3n2C)-c2ccccc2CO[C@H]1CN(C)S(=O)(=O)c1cccc(F)c1
AC50 [11]: 46.4 µM (active) | AC50 (Paired box protein Pax-8): 13.7 µM (active)

Cc1cc(C)c(C#N)c(SC[S+]([O-])Cc2ccc(Cl)cc2)n1 (stereo not given)
IC50 (Fatty acid synthase [1]): 5.88 µM (active) | IC50 (Fatty acid synthase [2]): 5.54 µM (active)

Clc1ccc(OCCOCCN2CCc3ccccc3C2)c(Cl)c1
CC50 [12]: > 40 µM (active) | IC50 (cells [13]): 18.6 µM (active)

Cc1ccc(C(=O)N/N=C\c2ccc(-c3ccc(Cl)cc3)o2)cn1
CC50 [12]: 30 µM (active) | IC50 (cells [13]): > 50 µM (active) | IC50 (H9c2): > 79 µM (inactive)

O=C(COC(=O)c1cc([N+](=O)[O-])ccc1N1CCOCC1)Nc1cccc(F)c1
IC50 (Fatty acid synthase [1]): 1.1 µM (active) | IC50 (Fatty acid synthase [2]): 0.917 µM (active)

O=C(Nc1ccc(C(=O)O)cc1)/C(=C\c1ccc([N+](=O)[O-])cc1)NC(=O)c1ccc(Br)cc1
IC50 (Fatty acid synthase [1]): 2.05 µM (active) | IC50 (Fatty acid synthase [2]): 1.21 µM (active)

CC(C)c1ccc(N(C(=O)c2csnn2)C(C(=O)NC(C)(C)C)c2ccncc2)cc1 (stereo not given)
EC50 [5]: 5.54 µM (active) | EC50 [6]: > 120 µM (not active) | EC50 (H4): 22.6 µM (inconclusive)

CC1(C)CC(=O)C2=C(C1)OC(/N=C/N1CCOCC1)=C(C#N)C2c1ccccc1 (stereo not given)
EC50 [7]: > 300 µM (not active) | EC50 [8]: > 300 µM (not active)

O/N=C1/C2C3CC4C5C3C1C5C1(OCCO1)C42 (stereo not given)
EC50 (cells [3]): > 350 µM (not active) | EC50 (cells [4]): > 350 µM (not active)
